Experimental data: patent publication US12263248B2, “Compounds and compositions for intracellular delivery of therapeutic agents” (ModernaTX, Inc., priority 2018, dated 2025)
Marks after values point to notes of the source that are not given here.

Assays:
luciferase (Luc) mRNA [1] = test: Luc expression, whole body bioluminescence after intravenous administration to mice; type: in vivo; conditions: for Fold increase in total body Luc Flux relative to MC3 at 6 h: Table 3A; for Novel lipid/MC3 ratio, 6 hr. timepoint, i.v. / Novel lipid/MC3 expression ratio, 6 hr. time point, i.v.: luciferase; for Novel lipid/MC3 ratio, 6 hr. timepoint, i.v.: relative to MC3, Table 3G; for Novel lipid/MC3 expression ratio, 6 hr. time point, i.v.: relative to MC3 formulation; for Total Flux 3 hours / Total Flux 6 hours / Total Flux 24 hours: Luc mRNA; for luciferase activity relative to MC3 LNP control: 0.5 mg/kg (mRNA dose); for Average total flux (6 h, ffluc) / Fold increase in average total flux relative to MC3: 6 h
Outline: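 Bioluminescence, read as region-of-interest total flux at 3, 6 and 24 h, followed a single 0.5 mg/kg intravenous dose of Luc mRNA-loaded nanoparticles in mice (n=6). Luciferin substrate (200 μL, 15 mg/mL in PBS) was injected intraperitoneally into CD-1 mice 15 minutes ahead of each imaging point.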

hEPO mRNA [2] = test: hEPO expression after subcutaneous administration to mice; type: in vivo, female CD-1 mice; conditions: 0.5 mpk
Outline: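 Lipid nanoparticle formulations carrying hEPO or luciferase mRNA were given subcutaneously at 0.5 mpk to female CD-1 mice. Whole-body luminescence imaging was done at 3, 6 and 24 h. Liver, spleen and injection-site expression were assessed ex vivo at 24 h.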

sC5b-9 = test: Complement activation in vitro (sC5b-9 levels); type: cell-based; conditions: human cells contacted in vitro; for sC5b-9 levels relative to saline: in words
Procedure: Complement activation assists in the clearance of pathogens from an organism. As it is undesirable that a subject's body recognize a nanoparticle composition as a foreign invader, low complement system activation upon administration of such a composition is preferred. The complex sC5b-9 is a marker for the activation of the complement system. Thus, human cells were contacted in vitro with nanoparticle compositions according to Table 1A and were evaluated for sC5b-9 levels.

luciferase (Luc) mRNA [3] = test: Luc expression in liver, lung, spleen and femur 6 hours after intravenous administration; type: in vivo; conditions: mice, intravenous, 0.5 mpk
Outline: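 LNP-formulated mRNA given IV to mice (n=3) at 0.5 mpk; at 6 h, bioluminescence imaged ex vivo 15 min after IP D-luciferin (15 mg/mL, 200 μL), organs imaged within 25 min. Values are total flux by region of interest.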

[4] = Particle size and polydispersity index of nanoparticle compositions (Zetasizer Nano ZS); type: physicochemical
Outline: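 Zetasizer Nano ZS; samples in 1×PBS; read-out: particle size plus polydispersity index.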

luciferase mRNA = test: Luciferase expression after subcutaneous administration to mice; type: in vivo, female CD-1 mice; conditions: for Novel lipid/MC3 expression ratio, s.c. Luc 0.5 mpk (AUC): relative to MC3; for Lipid/MC3 AUC ratio: luciferase; for AUC (luciferase expression): whole body BLI; for Novel lipid/MC3 ratio, s.c. Luc 6 hr.: relative to MC3, Table 3G
Outline: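 Female CD-1 mice given luciferase mRNA in lipid nanoparticle formulations subcutaneously at 0.5 mpk. Expression read by whole-body bioluminescence imaging at 3, 6 and 24 h, with ex vivo liver, spleen and injection-site luminescence at 24 h.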

hEPO mRNA [5] = test: hEPO expression after intramuscular administration to mice; type: in vivo; conditions: for Fold increase in hEPO concentration relative to MC3: mice, 0.01 mpk, 6 hr time point
[6] = Table 1A, lipid:DSPC:cholesterol:PEG-DMG 50:10:38.5:1.5 mol %
[7] = Table 1B, formulated with hEPO mRNA
[8] = Table 1C, compositions for subcutaneous administration
[9] = Table 1D, for subcutaneous administration, # formulated with hEPO mRNA
[10] = lipid nanoparticle, ±SD within one assay run (Table 37)
[11] = lipid:DSPC:Chol:PEG-DMG (50:10:38.5:1.5), hEPO mRNA
[12] = Table 1E, compositions for subcutaneous administration

Structure (SMILES)	Fold increase in total body Luc Flux relative to MC3 at 6 h (luciferase (Luc) mRNA [1]; i.v. administration)	Total Flux 3 hours (luciferase (Luc) mRNA [1]; mice, i.v., 0.5 mg/kg)	Total Flux 6 hours (luciferase (Luc) mRNA [1]; mice, i.v., 0.5 mg/kg)	Total Flux 24 hours (luciferase (Luc) mRNA [1]; mice, i.v., 0.5 mg/kg)	Fold increase in sC5b-9 levels versus saline (sC5b-9)	sC5b-9 levels relative to saline (sC5b-9)	Total Flux Femur (luciferase (Luc) mRNA [3])	Total Flux Liver (luciferase (Luc) mRNA [3])	Total Flux Lung (luciferase (Luc) mRNA [3])	Total Flux Spleen (luciferase (Luc) mRNA [3])	PDI ([4]; Table 1A)	Size (nm) [4, 6] [nm]	PDI [4, 8]	Size (nm) [4, 8] [nm]	Lipid/MC3 AUC ratio (luciferase mRNA; 0.5 mpk)	AUC (luciferase expression) (luciferase mRNA; 0.5 mpk)	PDI (Polydispersity index) [4, 10]	other results
CCCCCCCCCOC(=O)CCCCCCCN(CCO)CCCCCCCOC(=O)C(CCCCCCCC)CCCCCCCC [Compound 30, 7-((2-Hydroxyethyl)(8-(nonyloxy)-8-oxooctyl)amino)heptyl 2-octyldecanoate]	2.49	1.19E+10	2.09E+10	1.21E+09	0.94	slightly decrease	6.38E+06	2.68E+09	1.02E+07	3.55E+07	0.15	59.4	0.12	81.7	6.38	1.0932E+11 (p/s) * h		Novel lipid/MC3 ratio, 6 hr. timepoint, i.v. (luciferase (Luc) mRNA [1]; intravenous): 2.49; Novel lipid/MC3 expression ratio, 6 hr. time point, i.v. (luciferase (Luc) mRNA [1]; intravenous): 2.49; hEPO expression Lipid/Compound 18 ratio, 6 hr. (hEPO mRNA [2]; 6 hr.): 1.35; hEPO expression Lipid/MC3 ratio, 6 hr. (hEPO mRNA [2]; 6 hr.): 6.53; hEPO expression Lipid/Compound 18 ratio, AUC (hEPO mRNA [2]; AUC): 1.27; hEPO expression Lipid/MC3 ratio, AUC (hEPO mRNA [2]; AUC): 6.38; PDI [4, 7]: 0.13; Size (nm) [4, 7]: 76.3 nm; PDI [4, 9]: 0.11; Size (nm) [4, 9]: 89.8 nm; Novel lipid/MC3 expression ratio, s.c. Luc 0.5 mpk (AUC) (luciferase mRNA; 0.5 mpk): (AUC: 6.38); Novel lipid/MC3 ratio, s.c. Luc 6 hr. (luciferase mRNA): 6.53; factor by which MC3 is outperformed (luciferase mRNA; female CD-1 mice, 0.5 mpk): 6.5; Fold increase in hEPO concentration relative to MC3 (hEPO mRNA [5]): 9.2; Novel lipid/MC3 ratio, 6 hr. timepoint, i.m. hEPO (hEPO mRNA [5]; relative to MC3, Table 3G): 9.2
CCCCC/C=C\C/C=C\CCCCCCCCN(CCO)CCCCCCCC(=O)OC(CCCCCCCC)CCCCCCCC [Compound 6, Heptadecan-9-yl 8-((2-hydroxyethyl)((9Z,12Z)-octadeca-9,12-dien-1-yl)amino)octanoate]	1.15	5.38E+09	7.60E+09	7.69E+08	1.39	somewhat increase	2.15E+06	1.09E+09	4.30E+06	3.03E+07	0.066	73.1					0.07 ± 0.05	luciferase activity relative to MC3 LNP control (luciferase (Luc) mRNA [1]; mice, intravenous): Equivalent expression to MC3 LNPs; Average total flux (6 h, ffluc) (luciferase (Luc) mRNA [1]; mice, intravenous): 7.60 × 10^9; Fold increase in average total flux relative to MC3 (luciferase (Luc) mRNA [1]; mice, intravenous): 1.15; PDI [4, 11]: 0.082
CCCCCCCC/C=C\COC(=O)CCCCCN(CCO)CCCCCC(=O)OC/C=C\CCCCCCCC [Compound 140, Di((Z)-undec-2-en-1-yl) 6,6′-((2-hydroxyethyl)azanediyl)dihexanoate]		3.74E+06	1.70E+06	5.67E+05	0.75		3.26E+04	4.21E+05	2.14E+04	2.22E+05	0.84	120.3						flux at all timepoints measured (luciferase (Luc) mRNA [1]; mice, i.v., 0.5 mg/kg, 3, 6 and 24 hour, in words): significantly lower flux
CCCCC/C=C\C/C=C\CCCCCCCCC(CCCCCCCC/C=C\C/C=C\CCCCC)OC(=O)CCCN(C)C [MC3, DLin-MC3-DMA, reference compound]	1.00	1.58E+10	2.12E+10	7.19E+08	0.73		2.56E+06	2.57E+09	1.27E+07	2.85E+07	0.11	79.7	0.09	56.9	1	1.7127E+10 (p/s) * h	0.11 ± 0.04	Lipid/MC3 Luc expression (luciferase (Luc) mRNA [1]; 0.5 mpk dose to mouse, 6 hours after administration): 1; 6 h Lipid/MC3 Avg. Luc Expression (luciferase (Luc) mRNA [1]; Table 3C, i.v. administration): 1; Fold increase AUC Lipid/MC3 (luciferase (Luc) mRNA [1]; Table 3C, i.v. administration): 1; AUC (h * p/s) (luciferase (Luc) mRNA [1]; Table 3C, i.v. administration, Luc): 8.24E+10 h * p/s; Lipid/MC3 AUC (luciferase (Luc) mRNA [1]; Table 3D, intravenous): 1; AUC (p/s * h) (luciferase (Luc) mRNA [1]; Table 3D, intravenous, Luc): 1.909E+011 p/s * h; Average total flux (6 h, ffluc) (luciferase (Luc) mRNA [1]; mice, intravenous): 6.59 × 10^9; Fold increase in average total flux relative to MC3 (luciferase (Luc) mRNA [1]; mice, intravenous): 1; PDI [4, 7]: 0.12; Size (nm) [4, 7]: 57.7 nm; PDI [4, 9]: 0.15; Size (nm) [4, 9]: 69.1 nm; PDI [4, 12]: 0.10; Size (nm) [4, 12]: 62.4 nm; PDI [4, 11]: 0.114; PDI ([4]; nanoparticle composition with hEPO mRNA (Table 30)): 0.220; Fold increase in hEPO concentration relative to MC3 (hEPO mRNA [5]): 1
CCCCCC/C=C\COC(=O)CCCCCCCN(CCO)CCCCCCCC(=O)OC(CCCCCCCC)CCCCCCCC [Compound 24, Heptadecan-9-yl (Z)-8_((2-hydroxyethyl) (8-(non-2-en-1-yloxy)-8-oxooctyl)amino)octanoate]	2.67	1.72E+10	2.25E+10	1.83E+09	0.81	slightly decrease	4.54E+06	4.19E+09	1.71E+07	8.78E+07	0.13	99.5	0.17	88.5	5.21	8.9281E+10 (p/s) * h		Novel lipid/MC3 ratio, 6 hr. timepoint, i.v. (luciferase (Luc) mRNA [1]; intravenous): 2.67; Novel lipid/MC3 expression ratio, 6 hr. time point, i.v. (luciferase (Luc) mRNA [1]; intravenous): 2.67; Novel lipid/MC3 expression ratio, s.c. Luc 0.5 mpk (AUC) (luciferase mRNA; 0.5 mpk): (AUC: 5.21); Novel lipid/MC3 ratio, s.c. Luc 6 hr. (luciferase mRNA): 5.79
CCCCC/C=C\C/C=C\CCCCCCCCN(CCO)CCCCCCCC(=O)OCCCCCCCCC [Compound 136, Nonyl 8-((2-hydroxyethyl)((9Z,12Z)-octadeca-9,12-dien-1-yl)amino)octanoate]		7.21E+08	7.33E+08	3.39E+07	0.69		6.60E+05	1.34E+08	8.91E+05	2.77E+07	0.5	140.4					0.11 ± 0.05	
CCCCCCCCC(CCCCCCCC)OC(=O)CCCCCCCN(CCO)CCCCCCCC(=O)OC(CCCCCCCC)CCCCCCCC [Compound 29, Di(heptadecan-9-yl) 8,8′-((2-hydroxyethyl)azanediyl)dioctanoate]	0.78	4.61E+09	2.89E+09	3.55E+08	0.93	slightly decrease	9.56E+05	5.20E+08	9.83E+05	5.99E+06	0.11	66.8					0.11 ± 0.03	Fold increase in Luc expression relative to MC3, Intravenous (0.5 mpk dose) (luciferase (Luc) mRNA [1]; intravenous, 0.5 mpk): 1.03; luciferase activity relative to MC3 LNP control (luciferase (Luc) mRNA [1]; mice, intravenous): lower luciferase activity; Size [4, 10]: 66.8 ± 1.1 nm
